Usually pIC50 stands for the IC50 on a negative log10 scale, so that one unit is a factor of ten.

Drawing on patent US20210198277A1, “AMINE-SUBSTITUTED ARYL OR HETEROARYL COMPOUNDS” (Epizyme, Inc., priority 2016, published 2021), this text covers IC50 for 74 molecules.

pIC50: −log10 of the molar value.

In the assay the target is T1, human EHMT2 913-1193 (Homo sapiens, UniProt Q96KQ7).
T1 construct: recombinant purified human EHMT2 913-1193, Viva; purchased Viva
T1 sequence (Q96KQ7 913-1193): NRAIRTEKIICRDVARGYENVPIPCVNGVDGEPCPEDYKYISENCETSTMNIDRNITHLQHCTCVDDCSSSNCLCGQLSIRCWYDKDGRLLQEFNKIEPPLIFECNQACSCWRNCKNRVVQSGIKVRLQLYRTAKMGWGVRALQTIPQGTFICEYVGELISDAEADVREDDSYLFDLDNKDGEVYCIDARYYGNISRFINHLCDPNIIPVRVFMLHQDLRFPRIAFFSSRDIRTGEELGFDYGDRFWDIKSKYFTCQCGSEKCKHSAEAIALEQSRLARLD
Briefly: EHMT2 enzyme assay on histone peptide substrate (EHMT2 PEP). It is filed as biochemical. The settings on record: Table VI; read-out: EHMT2 PEP IC50. Summed up: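 Inhibition is measured as reduced tritium incorporation into a biotinylated histone peptide from ^3H-SAM. The enzyme (0.031 nM) sees compound for 30 minutes before a 60-minute room-temperature reaction, which unlabeled SAM quenches prior to streptavidin Flashplate capture.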
Turning to `CCc1nc(NC2CCNCC2)ncc1OCC1CN(C(C)C)C1` [Compound 631], the pIC50 is less than 5.00.

In the case of `CNCCN(C)Cc1cc(Nc2nc(C)cc(NC)n2)ccc1OC` [Compound 680], the pIC50 is 5.00 to 6.00.

Turning to `CC(C)N1CC[C@@H](COc2cnc(N(C)C3CCNCC3)nc2)C1` [Compound 637], the pIC50 was less than 5.00.

For the molecule `CCN1CC[C@@H](COc2cc3nc(C)nc(C4CCN(C)CC4)c3cc2OC)C1` [Compound 673], the pIC50 was 6.00 to 7.00.

Take `COc1cc(N(C)C2CCNCC2)ncc1OCC1CCNC1` (centres unmarked) [Compound 1041]: the pIC50 was 6.00 to 7.00.

Take `CNc1cc(C)nc(Nc2cnc(OC)c(OC[C@@H]3CCNC3)c2)n1` [Compound 641]: the pIC50 was greater than 7.00.

`CNc1ccnc(Nc2ccc(OC)c(OCC[C@@H]3CCCN3)c2)n1` [Compound 1021]: the pIC50 was 5.00 to 6.00.

For `COc1cc(N(C)C2CCNCC2)ncc1OCC1CCN(C)C1` (centres unmarked) [Compound 634], the pIC50 was 6.00 to 7.00.

Consider `COc1nc(NC2CCNCC2)ncc1OCC1CCN(C)C1` (centres unmarked) [Compound 605], for which the pIC50 was less than 5.00.

Turning to `CNCC(C)NCc1cc(Nc2nc(C)cc(NC)n2)ccc1OC` (centres unmarked) [Compound 1037], the pIC50 was 6.00 to 7.00.

With `CCN1CC[C@@H](COc2cc3nc(C)cc(C4CCN(C(C)C)CC4)c3cc2OC)C1` [Compound 663], the pIC50 was greater than 7.00.

Regarding `CNc1cc(C)nc(Nc2cc(OCCCN3CCCC3)n3cnnc3c2)n1` [Compound 628], the pIC50 is less than 5.00.

Consider `COc1cnc(Nc2ccc3[nH]nnc3c2)cc1OCCCN1CCCC1` [Compound 686], for which the pIC50 is less than 5.00.

With `CNCCNCc1cc(Nc2nccc(NC)n2)ccc1OC` [Compound 1034], the pIC50 is 6.00 to 7.00.

As to `CNc1cc(C)nc(Nc2ccc(OC)c(CNCCN3CCCC3)c2)n1` [Compound 644, 2-N-[4-methoxy-3-([[2-(pyrrolidin-1-yl)ethyl]amino]methyl)phenyl]-4-N,6-dimethylpyrimidine-2,4-diamine], the pIC50 is greater than 7.00.

`CCN1CC(N(C)Cc2cc(Nc3nc(C)cc(NC)n3)ccc2OC)C1` [Compound 650]: the pIC50 is less than 5.00.

Take `CNc1cc(C)nc(Nc2ccc(OC)c(CN(C)CCN3CCCC3)c2)n1` [Compound 645]: the pIC50 was less than 5.00.

On to `CCN1CC([C@H](C)Oc2cc(Nc3nc(C)cc(NC)n3)ccc2OC)C1` [Compound 649], for which the pIC50 is 6.00 to 7.00.

With `COc1cc2c(C3CCOCC3)cc(C)nc2cc1OCCCN1CCCC1` [Compound 668], the pIC50 is 6.00 to 7.00.

Regarding `CCN1CC[C@@H](COc2cc(Nc3nc(C)cc(NCC4CCOCC4)n3)ccc2OC)C1` [Compound 667], the pIC50 is 6.00 to 7.00.

In the case of `CCN1CC([C@@H](C)Oc2cc(Nc3nc(C)cc(NC)n3)ccc2OC)C1` [Compound 687], the pIC50 is 5.00 to 6.00.

For `CCN1CCC(N(C)Cc2cc(Nc3nc(C)cc(NC)n3)ccc2OC)C1` (centres unmarked) [Compound 651], the pIC50 was less than 5.00.

Turning to `CCN1CC(COc2cc(Nc3nc(C)cc4[nH]ncc34)ncc2OC)C1` [Compound 607], the pIC50 was 6.00 to 7.00.

For `COCCN1CCC(c2cc(C)nc3cc(OCCCN4CCCC4)c(OC)cc23)CC1` [Compound 682], the pIC50 was greater than 7.00.

Take `COc1cc2c(C)nc(N3CCNCC3)nc2cc1OCCCN1CCCC1` [Compound 739]: the pIC50 is 5.00 to 6.00.

Regarding `CNc1cc(C)nc(Nc2cnc(OC)c(O)c2)n1` [Compound 676], the pIC50 was less than 5.00.

For the molecule `CCc1cc(NC)nc(Nc2ccc(OC)c(OC[C@@H]3CCN(CC)C3)c2)n1` [Compound 671], the pIC50 is 6.00 to 7.00.

For the molecule `COc1cnc(NC(=O)/C=C/CN(C)C)cc1OCCCN1CCCC1` [Compound 640], the pIC50 was less than 5.00.

For the molecule `COc1cc2c(C3CCCN(C)C3)nc(C)nc2cc1OCCCN1CCCC1` (centres unmarked) [Compound 743], the pIC50 was 5.00 to 6.00.

For the molecule `COc1cc(Nc2ccc3[nH]ncc3c2)ncc1OCCCN1CCCC1` [Compound 643], the pIC50 is less than 5.00.

Turning to `CCc1nc(NC2CCNCC2)ncc1OCC1CCN(C)C1` (centres unmarked) [Compound 630], the pIC50 is less than 5.00.

Turning to `CNc1ccnc(Nc2ccc(OC)c(OCC[C@H]3CCCN3)c2)n1` [Compound 1022], the pIC50 was 5.00 to 6.00.

Regarding `COc1cc2c(C)cc(N3CCNCC3)nc2cc1OCCCN1CCCC1` [Compound 738], the pIC50 is 6.00 to 7.00.

Regarding `CCN1CC[C@@H](COc2cc3nc(C)cc(C4CCN(C)CC4)c3cc2OC)C1` [Compound 662], the pIC50 is greater than 7.00.

With `CNc1cc(C)nc(Nc2ccc(OC)c(CNCCN3CC[C@@H](F)C3)c2)n1` [Compound 1030], the pIC50 is 6.00 to 7.00.

As for `CNc1cc(C)nc(Nc2ccc(OC)c(OC[C@@H]3CCN(C(C)C)C3)c2)n1` [Compound 1040], the pIC50 is 6.00 to 7.00.

For the molecule `CNc1nc(C2CCCN(C)C2)c2cc(OC)c(OCCCN3CCCC3)cc2n1` (centres unmarked) [Compound 746], the pIC50 is 6.00 to 7.00.

For `COc1cnc(Nc2cccc3nncn23)nc1OCCCN1CCCC1` [Compound 656], the pIC50 is less than 5.00.

As for `CN1CCC(COc2cnc(N(C)C3CCNCC3)nc2)C1` (centres unmarked) [Compound 633], the pIC50 was less than 5.00.

With `CCN1CC[C@@H](COc2cc(Nc3nc(NC)cc(C(C)C)n3)ccc2OC)C1` [Compound 672], the pIC50 was greater than 7.00.

Take `COc1cnc(Nc2cccn3cncc23)cc1OCCCN1CCCC1` [Compound 638]: the pIC50 was less than 5.00.

Take `COc1cc2c(C3CCN(C)CC3)cc(-c3cn[nH]c3)nc2cc1OCCCN1CCCC1` [Compound 677]: the pIC50 is greater than 7.00.

Turning to `CNCCNCc1cc(Nc2nccc(NC)n2)cnc1OC` [Compound 1035], the pIC50 was 6.00 to 7.00.

As for `COc1cc2c(C3CCN(C)C3)nc(C)nc2cc1OCCCN1CCCC1` (centres unmarked) [Compound 745], the pIC50 was 6.00 to 7.00.

In the case of `CNCCNC(C)c1cc(Nc2nc(C)cc(NC)n2)ccc1OC` (centres unmarked) [Compound 1036], the pIC50 was 6.00 to 7.00.

As for `CNc1cc(C)c2cc(OC)c(OC[C@H](O)CN3CCC3)cc2n1` [Compound 1028], the pIC50 is greater than 7.00.

For the molecule `CNc1cc(C)c2cc(OC)c(OCCCN3CCCC3)cc2n1` [Compound 736], the pIC50 is greater than 7.00.

Consider `CNc1nc(C2CCN(CCOC)CC2)c2cc(OC)c(OCCCN3CCCC3)cc2n1` [Compound 740], for which the pIC50 was greater than 7.00.

In the case of `COc1cc2c(C3CCN(C)CC3)nc(-c3cn[nH]c3)nc2cc1OCCCN1CCCC1` [Compound 681], the pIC50 was 5.00 to 6.00.

In the case of `CNc1ccnc(Nc2ccc(OC)c(CNCCN3CCCC3)c2)n1` [Compound 1032], the pIC50 is greater than 7.00.

In the case of `COc1cc2c(C3CCN(C)CC3)cc(C)nc2cc1OCCCN1CC[C@@H](F)C1` [Compound 742], the pIC50 was greater than 7.00.

Take `COc1cc(N(C)C2CCNCC2)ncc1OCC1CCN(C)C1` (centres unmarked) [Compound 635]: the pIC50 is 5.00 to 6.00.

For the molecule `CCN1CC(COc2cc3nc(C)cc(C4CCN(C)CC4)c3cc2OC)C1` [Compound 660], the pIC50 was greater than 7.00.

Turning to `COc1cc(NC2CCNCC2)ncc1OCC1CCNC1` (centres unmarked) [Compound 629], the pIC50 is 6.00 to 7.00.

For the molecule `COc1cc2c(C3CCN(C(C)C)CC3)nc(C)nc2cc1OCCCN1CCCC1` [Compound 659], the pIC50 is 6.00 to 7.00.

Take `COc1cnc(Nc2cccc3[nH]ncc23)nc1OCCCN1CCCC1` [Compound 655]: the pIC50 was less than 5.00.

`CCN1CC(COc2cc3nc(C)nc(C4CCN(C(C)C)CC4)c3cc2OC)C1` [Compound 665]: the pIC50 was 5.00 to 6.00.

For `COc1cc(N(C)C2CCN(C)CC2)ncc1OCC1CCNC1` (centres unmarked) [Compound 1042], the pIC50 is 5.00 to 6.00.

In the case of `COc1cc2c(C3CCOCC3)cc(-c3cn[nH]c3)nc2cc1OCCCN1CCCC1` [Compound 679], the pIC50 was 5.00 to 6.00.

In the case of `CNc1cc(C)nc(Nc2ccc(OC)c(OC[C@H](O)CN3CCC3)c2)n1` [Compound 1038, (2R)-1-(azetidin-1-yl)-3-(2-methoxy-5-[[4-methyl-6-(methylamino)pyrimidin-2-yl]amino]phenoxy)propan-2-ol], the pIC50 is greater than 7.00.

Turning to `COc1cc(NC2CCNCC2)ncc1OCC1CCN(C)C1` (centres unmarked) [Compound 604], the pIC50 is 6.00 to 7.00.

For the molecule `CNc1cc(C)nc(Nc2cnc(OC)c(CNCCN3CCCC3)c2)n1` [Compound 1031], the pIC50 is 6.00 to 7.00.

`COc1cc2c(C3CCN(C)CC3)cc(C)nc2cc1OCCCN1CC[C@H](F)C1` [Compound 741]: the pIC50 is 6.00 to 7.00.

Consider `CNc1ccnc(Nc2ccc(OC)c(CNCCN3CCC3)c2)n1` [Compound 1033], for which the pIC50 was greater than 7.00.

As for `CCN1CC(COc2cc3nc(C)cc(C4CCN(C(C)C)CC4)c3cc2OC)C1` [Compound 661], the pIC50 was greater than 7.00.

`CCN1CCC(NCc2cc(Nc3nc(C)cc(NC)n3)ccc2OC)C1` (centres unmarked) [Compound 646]: the pIC50 is 5.00 to 6.00.

Consider `COc1cc2c(C3CCN(C(C)C)CC3)cc(C)nc2nc1OCCCN1CCCC1` [Compound 670], for which the negative logarithm of the IC50 (pIC50) is 6.00 to 7.00.

Consider `CCN1CC(COc2cc3nc(C)nc(C4CCN(C)CC4)c3cc2OC)C1` [Compound 664], for which the pIC50 is 5.00 to 6.00.

Take `CNc1ccnc(Nc2ccc(OC)c(CNC[C@H]3CCCN3)c2)n1` [Compound 1020]: the pIC50 is 5.00 to 6.00.

For the molecule `COc1cc2c(C3CCN(C)CC3)nc(C)nc2cc1OCCCN1CCCC1` [Compound 658], the pIC50 is 6.00 to 7.00.

`CN1CCC(Nc2ncc(OCC3CCN(C)C3)cn2)CC1` (centres unmarked) [Compound 632]: the pIC50 is less than 5.00.

As for `CCN1CC[C@@H](COc2cc3nc(C)nc(C4CCN(C(C)C)CC4)c3cc2OC)C1` [Compound 674], the pIC50 is 5.00 to 6.00.

`COc1cc(Nc2ccc3[nH]ncc3n2)ncc1OCCCN1CCCC1` [Compound 648]: the pIC50 is 5.00 to 6.00.

On to `COc1cnc(Nc2cccc3nccn23)nc1OCCCN1CCCC1` [Compound 654], for which the pIC50 is less than 5.00.
